According to ChEMBL document CHEMBL3832084, “DailyMed|setid=22191eca-c98d-4a07-844e-11edb0f04b8d | DIVIGEL - estradiol gel|Physicians Total Care, Inc”:

What was measured:
Format in all cases: ADME, organism-based
[1] = (§1) Pharmacokinetic parameters for Estradiol on day 14, following multiple daily topical administration of Divigel 0.1 %,at steady state.; parameters: dose 0.5 g, dose 1 g, dose 0.25 g, route topical; conditions: human, in vivo, topical or ocular, dose 0.25 g, dosed compound id 17, dosed compound name ESTRADIOL, regimen Multiple daily dose, sampling time1 Day 14 days, study dosing duration 14 days, tissue Plasma
Homo sapiens = assay: as §1; parameters: dose 0.5 g, dose 1 g, dose 0.25 g, route topical; conditions: in vivo, topical_or_ocular, dosed compound id 17, dosed compound name ESTRADIOL, regimen Multiple daily dose, sampling time1 Day 14 days, study dosing duration 14 days, tissue Plasma
[2] = Apparent terminal half-life of Estradiol evaluated after topical administration of Divigel.; conditions: human, in vivo, topical or ocular, dosed compound id 17, dosed compound name ESTRADIOL, tissue Plasma, read-out: t1/2(app) (converted)

Tmax [1]: 16 h
Cavg (Homo sapiens; dose 0.25 g): 0.0098 ng/mL
Cavg (Homo sapiens; dose 0.5 g): 0.021 ng/mL
Tmax (Homo sapiens; dose 0.5 g): 10 h
Cavg (Homo sapiens; dose 1 g): 0.0305 ng/mL
Tmax (Homo sapiens; dose 1 g): 8 h
half-life [2]: 10 h
SMILES: C[C@]12CC[C@@H]3c4ccc(O)cc4CC[C@H]3[C@@H]1CC[C@@H]2O [ESTRADIOL]
